Measured values taken from ChEMBL document CHEMBL1201862, “PubChem BioAssay data set” (2004).
Activity calls are given as the source filed them.

Columns and labels:
Albumin = Albumin (Bos taurus, UniProt P02769); experiment: Counterscreen for inhibitors of T-cell receptor (TCR)-CD3 interaction: Fluorescence-based biochemical high throughput dose response assay to identify inhibitors of T-cell receptor (TCR)-CD3 interaction using a TAMRA-labeled BSA probe.; type: functional
Caspase-6 = biological target: T1, Caspase-6 (Homo sapiens, UniProt P55212); experiment: inhibition of CASP6 peptide cleavage – biochemical, VEID-R110 fluorescence, cherry-pick, dose response (AID 720632)
T1 sequence (P55212 whole entry): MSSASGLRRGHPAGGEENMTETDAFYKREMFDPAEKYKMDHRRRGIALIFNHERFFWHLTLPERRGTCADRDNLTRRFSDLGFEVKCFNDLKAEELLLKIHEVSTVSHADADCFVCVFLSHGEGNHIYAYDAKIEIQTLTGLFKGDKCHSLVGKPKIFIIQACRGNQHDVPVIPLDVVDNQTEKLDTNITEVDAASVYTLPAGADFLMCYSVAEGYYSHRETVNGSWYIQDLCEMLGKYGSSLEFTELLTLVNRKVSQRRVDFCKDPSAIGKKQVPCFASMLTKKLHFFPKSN

[1] = biological target: T2, Histone-lysine N-methyltransferase NSD2 (Homo sapiens, UniProt O96028); type: biochemical
T2 sequence (O96028 whole entry): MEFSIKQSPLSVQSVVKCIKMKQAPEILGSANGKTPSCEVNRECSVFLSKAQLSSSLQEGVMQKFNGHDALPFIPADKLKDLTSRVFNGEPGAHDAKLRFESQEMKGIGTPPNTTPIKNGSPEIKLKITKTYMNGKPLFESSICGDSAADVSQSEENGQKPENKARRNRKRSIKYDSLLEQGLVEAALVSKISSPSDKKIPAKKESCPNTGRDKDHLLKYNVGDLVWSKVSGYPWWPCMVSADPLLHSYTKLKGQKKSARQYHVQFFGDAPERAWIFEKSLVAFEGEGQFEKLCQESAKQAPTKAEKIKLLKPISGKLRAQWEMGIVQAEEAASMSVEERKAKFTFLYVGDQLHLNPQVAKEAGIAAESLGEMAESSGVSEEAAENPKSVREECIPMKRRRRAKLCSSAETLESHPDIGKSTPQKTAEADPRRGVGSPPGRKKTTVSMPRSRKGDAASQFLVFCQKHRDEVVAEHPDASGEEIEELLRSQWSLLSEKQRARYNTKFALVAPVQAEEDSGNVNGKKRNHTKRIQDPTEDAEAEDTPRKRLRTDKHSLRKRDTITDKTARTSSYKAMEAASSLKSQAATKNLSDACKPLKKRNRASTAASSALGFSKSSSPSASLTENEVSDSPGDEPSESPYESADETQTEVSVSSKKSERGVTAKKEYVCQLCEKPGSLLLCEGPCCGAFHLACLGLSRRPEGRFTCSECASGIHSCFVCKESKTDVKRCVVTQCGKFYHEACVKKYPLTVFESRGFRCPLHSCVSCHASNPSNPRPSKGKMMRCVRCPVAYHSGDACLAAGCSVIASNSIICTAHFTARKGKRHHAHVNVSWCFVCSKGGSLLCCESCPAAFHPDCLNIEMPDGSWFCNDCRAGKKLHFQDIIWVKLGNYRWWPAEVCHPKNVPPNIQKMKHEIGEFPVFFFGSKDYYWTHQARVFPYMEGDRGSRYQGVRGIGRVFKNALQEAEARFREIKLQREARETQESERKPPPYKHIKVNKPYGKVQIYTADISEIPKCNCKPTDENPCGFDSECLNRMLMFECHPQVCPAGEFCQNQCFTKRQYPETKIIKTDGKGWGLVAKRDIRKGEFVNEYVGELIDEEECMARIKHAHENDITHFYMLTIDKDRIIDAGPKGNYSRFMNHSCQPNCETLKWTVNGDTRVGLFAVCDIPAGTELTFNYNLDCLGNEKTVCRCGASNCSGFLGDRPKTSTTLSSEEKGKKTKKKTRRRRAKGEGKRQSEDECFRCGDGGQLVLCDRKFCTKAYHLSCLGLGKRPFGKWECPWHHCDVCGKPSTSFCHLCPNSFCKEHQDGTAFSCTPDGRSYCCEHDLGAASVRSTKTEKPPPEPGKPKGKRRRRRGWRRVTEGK

[2] = biological target: Induced myeloid leukemia cell differentiation protein Mcl-1 (Homo sapiens, UniProt Q07820); type: functional
Chain of Induced myeloid leukemia cell differentiation protein Mcl-1 (Q07820 whole entry): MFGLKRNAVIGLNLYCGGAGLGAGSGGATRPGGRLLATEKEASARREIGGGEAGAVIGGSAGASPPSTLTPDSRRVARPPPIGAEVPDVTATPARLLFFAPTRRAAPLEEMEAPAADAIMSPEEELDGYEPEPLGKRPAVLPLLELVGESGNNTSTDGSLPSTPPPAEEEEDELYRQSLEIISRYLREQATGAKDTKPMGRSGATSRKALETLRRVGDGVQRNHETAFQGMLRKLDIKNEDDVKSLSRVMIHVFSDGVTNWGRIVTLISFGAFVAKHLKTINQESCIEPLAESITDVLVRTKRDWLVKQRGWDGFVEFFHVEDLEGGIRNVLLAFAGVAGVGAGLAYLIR

Aminopeptidase N = biological target: T3, Aminopeptidase N (Plasmodium falciparum FcB1/Columbia, UniProt O96935); experiment: malaria alanyl aminopeptidase activity blockers – biochemical, fluorogenic H-Leu-NHMec substrate, 1536-well (AID 1445); parameters: species or system Plasmodium falciparum 3D7, 3D7
T3 sequence (O96935 whole entry): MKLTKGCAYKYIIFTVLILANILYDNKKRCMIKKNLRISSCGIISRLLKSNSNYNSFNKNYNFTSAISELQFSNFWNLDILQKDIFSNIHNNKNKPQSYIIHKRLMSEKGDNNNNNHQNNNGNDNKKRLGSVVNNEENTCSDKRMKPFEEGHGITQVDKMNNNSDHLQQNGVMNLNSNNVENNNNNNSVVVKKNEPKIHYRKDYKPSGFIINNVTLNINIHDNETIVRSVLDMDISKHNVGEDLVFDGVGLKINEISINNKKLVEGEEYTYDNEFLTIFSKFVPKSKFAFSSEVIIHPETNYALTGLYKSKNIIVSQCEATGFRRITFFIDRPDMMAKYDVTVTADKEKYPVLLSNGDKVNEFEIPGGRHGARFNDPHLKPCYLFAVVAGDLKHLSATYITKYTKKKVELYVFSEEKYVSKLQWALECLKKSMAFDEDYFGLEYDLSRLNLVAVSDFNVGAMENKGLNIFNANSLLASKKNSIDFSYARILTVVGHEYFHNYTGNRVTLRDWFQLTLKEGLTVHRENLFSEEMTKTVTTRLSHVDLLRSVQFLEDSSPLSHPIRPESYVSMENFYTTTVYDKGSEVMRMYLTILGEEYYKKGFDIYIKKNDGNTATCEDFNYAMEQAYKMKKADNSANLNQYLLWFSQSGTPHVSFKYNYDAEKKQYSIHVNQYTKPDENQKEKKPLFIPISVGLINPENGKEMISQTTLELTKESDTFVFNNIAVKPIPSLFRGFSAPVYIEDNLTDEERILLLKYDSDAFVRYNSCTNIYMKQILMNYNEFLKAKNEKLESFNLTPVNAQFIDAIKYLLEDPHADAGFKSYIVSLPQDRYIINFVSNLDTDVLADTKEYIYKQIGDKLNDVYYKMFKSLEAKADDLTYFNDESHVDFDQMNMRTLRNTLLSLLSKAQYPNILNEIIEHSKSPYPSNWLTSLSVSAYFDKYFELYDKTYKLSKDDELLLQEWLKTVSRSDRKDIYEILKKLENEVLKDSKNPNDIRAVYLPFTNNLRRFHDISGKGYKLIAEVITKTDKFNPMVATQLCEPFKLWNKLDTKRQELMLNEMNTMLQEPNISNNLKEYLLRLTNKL

Large T antigen = Large T antigen (Simian virus 40, UniProt P03070); type: functional, Betapolyomavirus macacae;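 also: Confirmatory-stage PubChem screen for compounds that inhibit SV40 T antigen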
Chain of Large T antigen (P03070 whole entry): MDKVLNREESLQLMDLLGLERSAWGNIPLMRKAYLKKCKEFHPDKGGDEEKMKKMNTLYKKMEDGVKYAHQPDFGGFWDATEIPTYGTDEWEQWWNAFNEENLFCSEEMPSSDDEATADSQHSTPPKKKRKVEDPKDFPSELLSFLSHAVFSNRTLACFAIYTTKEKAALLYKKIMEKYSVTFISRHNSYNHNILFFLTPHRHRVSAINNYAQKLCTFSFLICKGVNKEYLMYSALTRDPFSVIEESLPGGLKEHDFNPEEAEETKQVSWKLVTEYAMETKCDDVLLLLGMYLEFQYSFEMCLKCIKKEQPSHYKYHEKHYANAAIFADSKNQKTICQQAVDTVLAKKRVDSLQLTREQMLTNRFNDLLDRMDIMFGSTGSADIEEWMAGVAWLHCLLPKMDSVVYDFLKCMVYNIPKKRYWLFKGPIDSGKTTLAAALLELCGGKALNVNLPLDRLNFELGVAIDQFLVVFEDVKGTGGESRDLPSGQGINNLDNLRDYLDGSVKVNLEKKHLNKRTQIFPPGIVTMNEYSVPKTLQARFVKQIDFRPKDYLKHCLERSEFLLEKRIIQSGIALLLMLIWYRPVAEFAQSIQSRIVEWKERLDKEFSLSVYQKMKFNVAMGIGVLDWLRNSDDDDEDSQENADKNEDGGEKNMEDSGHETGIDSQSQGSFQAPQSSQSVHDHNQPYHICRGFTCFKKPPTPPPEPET

[3] = NIH-3T3 fibroblast cytotoxicity, dose response, cytotoxicity control, cell-based, fluorescence, Alamar Blue, secondary assay (AID 2327); type: functional;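 also: NIH-3T3 mouse fibroblasts cultured with fluconazole at 8 µg/mL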
[4] = fluconazole-exposed Candida albicans growth modulators – fluorescence, retest, confirmation (AID 2467); type: functional, cell-based
[5] = biological target: E3 ubiquitin-protein ligase UHRF1 (Homo sapiens, UniProt Q96T88); experiment: Counterscreen for inhibitors of 5-meCpG-binding domain protein 2 (MBD2): TRFRET-based biochemical high throughput dose response assay to identify inhibitors of binding of ubiquitin-like with PHD and ring finger domains 1 (UHRF1) to methylated oligonucleotide.
Chain of E3 ubiquitin-protein ligase UHRF1 (Q96T88 whole entry, the tested form may be a part): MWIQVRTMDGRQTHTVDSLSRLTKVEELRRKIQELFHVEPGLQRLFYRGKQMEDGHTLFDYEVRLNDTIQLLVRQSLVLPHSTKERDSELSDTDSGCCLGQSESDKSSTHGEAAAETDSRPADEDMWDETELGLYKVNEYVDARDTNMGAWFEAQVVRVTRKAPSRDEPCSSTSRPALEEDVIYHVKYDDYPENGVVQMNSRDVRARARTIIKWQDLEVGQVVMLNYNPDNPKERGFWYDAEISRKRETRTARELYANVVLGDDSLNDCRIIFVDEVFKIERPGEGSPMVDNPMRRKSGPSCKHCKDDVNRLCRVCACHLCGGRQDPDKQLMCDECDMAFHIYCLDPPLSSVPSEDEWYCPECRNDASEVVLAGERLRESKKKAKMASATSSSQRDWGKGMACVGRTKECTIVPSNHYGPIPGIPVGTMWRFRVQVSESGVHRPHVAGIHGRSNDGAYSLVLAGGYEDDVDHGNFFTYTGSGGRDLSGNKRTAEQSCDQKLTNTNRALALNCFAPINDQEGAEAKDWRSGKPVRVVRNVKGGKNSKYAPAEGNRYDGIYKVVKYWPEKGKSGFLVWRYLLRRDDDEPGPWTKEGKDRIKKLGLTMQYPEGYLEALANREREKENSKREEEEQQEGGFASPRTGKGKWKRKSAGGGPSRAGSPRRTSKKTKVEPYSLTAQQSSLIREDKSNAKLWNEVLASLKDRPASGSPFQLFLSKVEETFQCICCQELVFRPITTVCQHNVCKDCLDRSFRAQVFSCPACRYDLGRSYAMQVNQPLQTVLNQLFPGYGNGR

[6] = biological target: T4, Mannose-6-phosphate isomerase (Homo sapiens, UniProt P34949); experiment: MPI enzyme activity inhibition – biochemical, fluorescence intensity, coupled assay, primary screen (AID 1209)
T4 sequence (P34949 whole entry): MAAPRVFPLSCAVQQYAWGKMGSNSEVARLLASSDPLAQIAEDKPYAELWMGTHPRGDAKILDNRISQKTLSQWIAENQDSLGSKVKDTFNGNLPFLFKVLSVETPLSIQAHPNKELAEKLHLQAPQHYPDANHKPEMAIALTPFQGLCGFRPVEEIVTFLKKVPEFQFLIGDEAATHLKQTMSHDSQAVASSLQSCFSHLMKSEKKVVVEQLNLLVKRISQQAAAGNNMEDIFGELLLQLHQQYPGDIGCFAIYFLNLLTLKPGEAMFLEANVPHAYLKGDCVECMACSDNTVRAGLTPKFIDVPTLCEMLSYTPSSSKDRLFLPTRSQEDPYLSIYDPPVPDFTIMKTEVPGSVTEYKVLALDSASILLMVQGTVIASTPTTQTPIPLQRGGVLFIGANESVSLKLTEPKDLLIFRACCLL

[7] = general mammalian cell viability loss – activator set, cherry-pick, cytotoxicity control for miR-122 modulator project, dose response (AID 720690); type: functional, cell-based;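 also: HEK293T human cells scored for general mammalian cytotoxicity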
Paired box protein Pax-8 = Paired box protein Pax-8 (Homo sapiens, UniProt Q06710); experiment: PAX8 transcriptional activity inhibition in RMG-I – RMG-I cells, luciferase, cherry-pick, dose response (AID 687027); type: functional, cell-based;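 also: luciferase reporter driven by Pax8 target thyroperoxidase promoter measured by SteadyGlo luminescence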
Chain of Paired box protein Pax-8 (Q06710 whole entry): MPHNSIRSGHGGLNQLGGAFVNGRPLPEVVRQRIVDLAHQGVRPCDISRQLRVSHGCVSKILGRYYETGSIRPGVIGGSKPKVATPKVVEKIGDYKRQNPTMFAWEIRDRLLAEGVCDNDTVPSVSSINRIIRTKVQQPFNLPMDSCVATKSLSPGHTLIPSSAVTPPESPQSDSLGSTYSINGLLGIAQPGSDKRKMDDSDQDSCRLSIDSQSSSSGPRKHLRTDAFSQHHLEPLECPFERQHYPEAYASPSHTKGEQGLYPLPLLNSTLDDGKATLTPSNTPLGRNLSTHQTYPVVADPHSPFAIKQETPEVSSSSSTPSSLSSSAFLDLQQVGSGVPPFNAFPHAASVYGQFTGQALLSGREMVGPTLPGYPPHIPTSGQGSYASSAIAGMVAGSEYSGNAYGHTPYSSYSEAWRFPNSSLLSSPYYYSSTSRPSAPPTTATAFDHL

[8] = lung carcinoma cell viability loss – CellTiter-Glo luminescence, dry powder, set 17, dose response (AID 1117284); type: functional, cell-based; details: A549
[9] = OVCAR-3 cell viability loss – plate reader, dry powder samples, PAX8 inhibitor project, dose response (AID 743044); type: functional, cell-based
[10] = viability loss in A549 lung cells – cell-based, 24 h, CellTiter-Glo luminescence, cherry-picks, cytotoxicity control, dose response (AID 1053115); type: functional; details: A549, 24 h
[11] = OVCAR8 cell viability loss – plate reader, dry powder samples, PAX8 project, dose response (AID 743197); type: functional, cell-based; details: OVCAR-8
[12] = growth inhibition of SK-MEL-5 melanoma cells – cell-based, CellTiter-Glo luminescence, dry powder, set 8, orthogonal assay for MITF inhibitor project, dose response (AID 651586); type: functional
[13] = MITF Orthogonal Assay: SK-MEL-5 CTG Assay Measured in Cell-Based System Using Plate Reader - 2084-02_Inhibitor_Dose_DryPowder_Activity_Set7.; type: functional
[14] = inhibitors of TRPM1-promoter reporter in SK-MEL-5 – cell-based, luciferase, dry powder, set 9, MITF inhibitor project, dose response (AID 651588); type: functional
[15] = inhibitors of TRPM1-promoter reporter in SK-MEL-5 – cell-based, luciferase, dry powder, set 8, MITF inhibitor project, dose response (AID 624430); type: functional
[16] = cytotoxicity in MITF-independent A375 cells – cell-based, CellTiter-Glo luminescence, dry powder, set 9, counter-screen for MITF modulator project, dose response (AID 651591); type: functional; details: A-375
[17] = growth inhibition of MALME3 cells – cell-based, CellTiter-Glo luminescence, dry powder, set 5, orthogonal assay for MITF inhibitor project, dose response (AID 651584); type: functional; details: MALME-3
[18] = MITF: Counter assay: A375 proliferation Measured in Cell-Based System Using Plate Reader - 2084-03_Inhibitor_Dose_DryPowder_Activity_Set8.; type: functional; details: A-375
[19] = MITF Orthogonal Assay: MALME3 CTG Assay Measured in Cell-Based System Using Plate Reader - 2084-04_Inhibitor_Dose_DryPowder_Activity_Set6.; type: functional; details: MALME-3
Protein Tat = Protein Tat (Human immunodeficiency virus type 1 group M subtype B (isolate HXB2)(HIV-1), UniProt P04608); type: functional;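 also: tat binding to TAR RNA read out by fluorescence polarization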
Chain of Protein Tat (P04608 whole entry): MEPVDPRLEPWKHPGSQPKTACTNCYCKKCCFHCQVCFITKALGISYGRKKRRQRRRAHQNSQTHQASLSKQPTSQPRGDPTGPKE

[20] = cytotoxicity toward Colo320 cells – cell-based, CellTiter-Glo luminescence, IC50, dose response (AID 1117334); type: functional; details: COLO 320
[21] = SNU-C1 cell viability reduction, dose response, CellTiter-Glo luminescence (AID 1117323); type: functional, cell-based
[22] = cytotoxicity toward HT-29 cells – cell-based, CellTiter-Glo luminescence, IC50, dose response (AID 1117330); type: functional
[23] = Reduced DLD-1 viability, concentration-response, CellTiter-Glo luminescence (AID 1117352); type: functional
[24] = cytotoxicity toward HCT116 cells – cell-based, CellTiter-Glo luminescence, IC50, dose response (AID 1117332); type: functional; details: HCT-116
[25] = RKO cell viability reduction, dose response, CellTiter-Glo luminescence (AID 1117322); type: functional
[26] = HCT116 cell viability decrease, GSK3B pretreatment – CellTiter-Glo, IC50, dose response (AID 1117339); type: functional; details: HCT-116
[27] = CellTiter-Glo luminescence survival assay, SW480 colon tumor line, concentration-response curve, half-maximal inhibitory concentration (AID 1117338); type: functional

Chain of Albumin (P02769 whole entry): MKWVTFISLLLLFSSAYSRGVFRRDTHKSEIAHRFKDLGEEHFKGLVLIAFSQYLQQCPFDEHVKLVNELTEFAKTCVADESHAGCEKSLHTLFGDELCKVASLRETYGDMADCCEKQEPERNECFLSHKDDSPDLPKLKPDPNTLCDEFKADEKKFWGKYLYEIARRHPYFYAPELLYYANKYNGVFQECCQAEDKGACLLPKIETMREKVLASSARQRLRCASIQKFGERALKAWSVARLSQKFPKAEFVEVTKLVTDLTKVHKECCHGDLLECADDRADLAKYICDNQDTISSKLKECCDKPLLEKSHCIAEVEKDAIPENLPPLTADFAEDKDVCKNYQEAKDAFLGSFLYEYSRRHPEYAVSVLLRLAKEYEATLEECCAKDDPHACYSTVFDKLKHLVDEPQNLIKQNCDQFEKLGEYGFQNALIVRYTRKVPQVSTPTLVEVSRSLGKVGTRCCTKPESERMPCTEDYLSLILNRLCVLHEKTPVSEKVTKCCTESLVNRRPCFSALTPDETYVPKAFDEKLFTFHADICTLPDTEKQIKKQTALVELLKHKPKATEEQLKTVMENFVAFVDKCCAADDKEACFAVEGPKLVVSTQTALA

COc1ccc(/C=N/NC(=O)c2cc(O)c(O)c(O)c2)cc1Cn1cc([N+](=O)[O-])cn1
IC50 (Albumin): > 94.1 µM (inactive)
AC50 (Caspase-6): 0.873 µM (active)
AC50 [1]: 5.22 µM (active)
IC50 [2]: 4.31 µM (active)
IC50 (Aminopeptidase N): 92.6 µM (active)
IC50 (Large T antigen): 0.99 µM (active)
EC50 [3]: 30 µM (active)
EC50 [4]: 3.25 µM (active)
IC50 [5]: > 43.8 µM (inactive)
IC50 [6]: 12 µM (active)

C[C@@H](O)C#Cc1ccc2c(c1)O[C@H](CN(C)Cc1ccc(-c3ccccc3)cc1)[C@@H](C)CN([C@@H](C)CO)S2(=O)=O
AC50 [7]: 19.4 µM (active)
AC50 (Paired box protein Pax-8): 4.84 µM (active)
AC50 [8]: 28.6 µM (active)
AC50 [9]: 50.2 µM (active)
AC50 [10]: 51.8 µM (active)
AC50 [11]: > 70 µM (inactive)

O=C1C(Nc2ccc(Br)cc2)=C(N2CCCCC2)C(=O)c2ccccc21
AC50 [12]: > 70 µM (inactive)
AC50 [13]: 4.57 µM (active)
AC50 [14]: 15.3 µM (active)
AC50 [15]: 4.44 µM (active)
AC50 [16]: 32.8 µM (active)
AC50 [17]: 15.7 µM (active)
AC50 [18]: 47.2 µM (active)
AC50 [19]: 15.7 µM (active)

CCSC1=C(C#N)C(c2cccs2)/C(=C(\O)OC)C(C)=N1 (stereo not drawn)
IC50 (Protein Tat): > 100 µM (active)

CSc1ccc2c(c1)N(CCC1CCCCN1C)c1ccccc1S2 (stereo not drawn) [THIORIDAZINE]
IC50 [20]: 7.92 µM (inactive)
IC50 [21]: 2.9 µM (active)
IC50 [22]: 5.9 µM (inactive)
IC50 [23]: > 20 µM (inactive)
IC50 [24]: > 20 µM (inactive)
IC50 [25]: 5.49 µM (inactive)
IC50 [26]: 8.11 µM (inactive)
IC50 [27]: 3.71 µM (active)
